# Results as given in paper PMC5515844, “A new Prenylated Flavonoid induces G0/G1 arrest and apoptosis through p38/JNK MAPK pathways in Human Hepatocellular Carcinoma cells” (Scientific Reports, 2017).
# Legend:
# Hep3B = assay: MTT cytotoxicity assay; type: cell-based, human; conditions: Homo sapiens, 48 h, mean ± SD
# Method: (§1) HepG2 and Hep3B (human hepatoma cells), Bcap37 and MCF-7 (human breast cancer cells), TE-1 (human esophageal cancer cells), A549 (human lung carcinoma cells), U251 and U87 (human glioma cells), were cultured in Dulbecco’s modified Eagle’s medium (DMEM) supplemented with 10% fetal bovine serum (FBS) and 1% penicillin/streptomycin (10000 U/mL penicillin, 10000 μg/ml streptomycin). SH-SY5Y (human neuroblastoma cells), LO2 (human normal liver cell) were grown in RPMI 1640 containing 10% FBS and 100 µg/ml penicillin, 100 µg/ml streptomycin. HepG2, Hep3B, MCF-7, TE-1, A549, U87, U251 and SHSY5Y cells were obtained from the American Type Culture Collection (Manassas, VA, USA). Bcap37 and LO2 cells were purchased from the Cell Bank of Chinese Academy of Sciences (Shanghai, China). All cells were incubated in a humidified atmosphere containing 5% CO2 at 37 °C.
# (§2) Cells seeded in 96-well plates with 5 × 10^3 cells/well were adhered overnight and incubated with vehicle control (DMSO) or diverse concentrations of compounds for 48 h. After treatment, 20 μL of MTT (5 mg/mL) was added to each well and incubated for another 4 h at 37 °C. Then, 150 μL of DMSO/well was appended after removed the supernatant to dissolve the formed purple formazan crystals and the color absorbance was measured at 490 nm using a microplate reader (Molecular Devices, Thermo, CA, USA). The inhibition rate (%) was calculated as (A490(control) − A490(drug groups))/(A490(control) − A490(blank)) × 100 and the value of IC50 (the concentration that caused 50% inhibition of cell viability) was determined using SPSS 20.0. This experiment was measured in triplicate, independently.
# HepG2 = assay: MTT cytotoxicity assay; type: cell-based, human; conditions: Homo sapiens, HepG2; MTT, 48 h, mean ± SD
# Method: as §1, §2
# HepG2 cells [1] = assay: Cell cycle analysis, PI staining, flow cytometry; type: cell-based, human; conditions: HepG2, different concentrations, 24 and 48 h
# Method: (§3) Flow cytometry was used to determine the cell cycle effects of daphnegiravone D on Hep3B and HepG2 cells. Cells were seeded (2 × 10^5 cells/well) into six-well plates with complete DMEM medium for 24 h and treated with various concentrations of daphnegiravone D for 24 and 48 h. Cells were harvested after treatment, washed with cold PBS, and fixed with 70% ethanol at 4 °C overnight. Then, resuspended cell pellets in staining buffer, blended in RNase A and PI staining for 30 min at 37 °C. Cell cycle phase was investigated using a FACSCalibur flow cytometer (BD Biosciences, New Jersey, USA). The results were analyzed with FlowJo software (v7.6.5, Tree Star, Inc.).
# Hep3B cells [2] = assay: Cell cycle analysis, PI staining, flow cytometry; type: cell-based, human; conditions: different concentrations, 24 and 48 h
# Method: as §3
# HepG2 cells [3] = assay: Annexin V-FITC/PI apoptosis detection; type: cell-based, human; conditions: HepG2, 2.5–10.0 μM, 48 h, dose-dependent
# Method: (§4) An annexin-V FITC apoptosis detection Kit was used to determine the apoptosis effect induced by daphnegiravone D according to the manufacturer’s instructions (BD Biosciences, CA, USA). Briefly, Hep3B and HepG2 cells were plated in 6-well plates (2 × 10^5/well) and incubated overnight. Cells were harvested and washed with PBS by centrifugation after treatment with different concentrations of daphnegiravone D for 48 h. Then, cells were resuspended in 500 μL binding buffer and staining with Annexin V-FITC (10 μL) and propidium iodide (5 μL) at room temperature in the dark for 10 min. Thereafter, cells were analyzed by flow cytometry within 1 h after staining. 10,000 cells were acquired for each sample and data were analyzed by Cell Quest Pro software (BD Biosciences, New Jersey, USA).
# Hep3B cells [4] = assay: Annexin V-FITC/PI apoptosis detection; type: cell-based, human; conditions: 0.5–2.0 μM, 48 h, dose-dependent
# Method: as §4
# Hep3B xenografts = assay: In vivo antitumor activity, nude mouse xenograft model; design: species or system BALB/c nude mice; conditions: for inhibition rate of the tumor volume: vs vehicle group
# Method: (§5) All of the animal studies and procedures were conducted in accordance with the approval and guidelines of the Shenyang Pharmaceutical University Institutional Animal Care and Use Committee (permission number: SCXK (Jing) 2014-0004). Male BALB/c nude mice at the age of six weeks were obtained from Beijing HFK Bioscience Co., Ltd (Beijing, China). Hep3B cells (1 × 10^5 cells) were implanted subcutaneously into the right backsides of each nude mouse. After 12 days, when the tumor size reached about 100 mm^3, the mice were randomly divided into three groups (n = 6) and intraperitoneally injected with vehicle control or daphnegiravone D (5 and 10 mg/kg body weight) every two days for two weeks. The body weight and tumor sizes were measured every day, and the tumor volume was determined by caliper measurements and calculated by the formula: 0.5236 × L × W ^2, where L is the long axis and W is the short axis of the tumor. The experiment was terminated when the tumors volume of the control group reached about 3000 mm^3. The mice were sacrificed, and the tumors, hearts, livers, spleens, lungs and kidneys were excised immediately to evaluate the antitumor activity and toxicity of daphnegiravone D.
# Mouse major organs (heart, liver, spleen, lung, kidney) and tumors were isolated and fixed in 10% buffered formalin for 3 days and embedded in paraffin. The tissues were sectioned at a thickness of 4 μm, and the obtained organ sections were prepared orderly by dewaxing, staining in hematoxylin and eosin-phloxine solution, then dehydrated and mounted with neutral resin. Subsequently, the tumor paraffin sections were deparaffinized, rehydrated, and subjected to antigen retrieval. Immunostaining was performed by the streptavidin-peroxidase (S-P) method (Ultra-sensitive; MaiXin, Fuzhou, China). The primary antibody was mouse anti-Ki67 monoclonal antibody (Maixin Biotech, Fuzhou, China). The peroxidase reaction was developed with 3,3-diaminobenzidine (Maixin Biotech, Fuzhou, China). Finally, the sections tissue morphology were observed using an OLYMPUS microscope.
# HepG2 cells [5] = assay: Clonogenic assay; type: cell-based, human; conditions: HepG2, two weeks, dose-dependent
# Method: (§6) The clonogenic assay was performed to appraise the effect of daphnegiravone D on cell proliferation. Hep3B (800 cells/well) or HepG2 (4,000 cells/well) cells were seeded in 6-well plates in 2 mL complete media overnight and attachment cells were incubated with various concentrations of daphnegiravone D for two weeks. Then, cells were washed twice with PBS carefully and fixed with 4.0% paraformaldehyde for 30 min, and stained with 0.5% crystal violet at room temperature for 30 min. Colonies containing exceeding 50 cells/colony were counted under microscope. All experiments were independently performed three times.
# Hep3B cells [6] = assay: Clonogenic assay; type: cell-based, human; conditions: two weeks, dose-dependent
# Method: as §6
# [7] = Gross evaluation and pathological study in xenograft nude mice; type: in vivo, BALB/c nude mice
# Method: as §5
# Mouse major organs (heart, liver, spleen, lung, kidney) and tumors were isolated and fixed in 10% buffered formalin for 3 days and embedded in paraffin. […]
# [8] = 5 and 10 mg/kg i.p. every two days for two weeks
structure (smiles),measurement,setting,value
"COc1c(-c2ccc(O)c(CC=C(C)C)c2)oc2c(CC=C(C)C)c(O)cc(O)c2c1=O [Compound 1, daphnegiravone D]",IC50,Hep3B,1.63 ± 0.56 µM
same,IC50,HepG2,9.89 ± 1.02 µM
same,cell cycle arrest,HepG2 cells [1],significantly arrested at G0/G1 phase
same,cell cycle arrest,Hep3B cells [2],significantly arrested at G0/G1 phase
same,AV+PI− and AV+PI+ cells (apoptosis),HepG2 cells [3],increased dramatically
same,AV+PI− and AV+PI+ cells (apoptosis),Hep3B cells [4],increased dramatically
same,inhibition rate of the tumor volume,Hep3B xenografts; 5 mg/kg i.p. every two days for two weeks,approximately 35.9%
same,inhibition rate of the tumor volume,Hep3B xenografts; 10 mg/kg i.p. every two days for two weeks,~50.3%
same,tumor volume and tumor weight,Hep3B xenografts; [8],markedly decreased
same,Ki-67 labeling index (proliferation capacity of tumor),"Hep3B xenografts; immunohistochemistry, vs vehicle control",lower proliferation capacity
same,colonies,HepG2 cells [5],dramatically reduced
same,colonies,Hep3B cells [6],dramatically reduced
same,"histopathology of heart, liver, spleen, lungs and kidneys","[7]; 5 mg/kg and 10 mg/kg, H&E, vs vehicle control group",no obvious differences
same,body weight of the mice,[7]; [8],did not affect the body weight
